# Source: PMC4184574, “Enantioselectivity in the cytochrome P450-dependent conversion of tegafur to 5-fluorouracil in human liver microsomes” (Pharmacology Research & Perspectives, 2013)
# Values joined by “and” are separate entries in the source; they are usually repeats but may differ in a detail not shown here. Equal entries are not always repeated.
# Tests used:
# [1] = molecular target: T1, CYP2C19 (Homo sapiens, UniProt P33261); test: 5-FU formation from FT enantiomers by cDNA-expressed CYP2C19 (kinetics, velocity, RAF contribution); type: in vitro ADME; conditions: for CYP contribution: CYP2C19, RAF method, 30 μmol/L
# T1 construct: purchased BD Gentest; host or cells: insect cells (baculovirus)
# T1 sequence (P33261 whole entry): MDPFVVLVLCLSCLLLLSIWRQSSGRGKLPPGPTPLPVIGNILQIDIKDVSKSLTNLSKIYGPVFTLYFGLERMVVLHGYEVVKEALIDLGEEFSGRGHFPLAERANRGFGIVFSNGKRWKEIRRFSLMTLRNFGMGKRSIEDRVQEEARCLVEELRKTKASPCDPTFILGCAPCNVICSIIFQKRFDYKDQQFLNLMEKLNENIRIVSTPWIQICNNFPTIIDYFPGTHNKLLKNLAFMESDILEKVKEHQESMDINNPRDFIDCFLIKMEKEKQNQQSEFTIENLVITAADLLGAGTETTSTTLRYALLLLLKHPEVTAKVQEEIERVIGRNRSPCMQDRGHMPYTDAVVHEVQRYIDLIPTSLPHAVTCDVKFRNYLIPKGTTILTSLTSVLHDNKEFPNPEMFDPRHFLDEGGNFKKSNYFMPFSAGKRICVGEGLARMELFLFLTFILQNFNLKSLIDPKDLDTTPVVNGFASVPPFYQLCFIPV
# Protocol: (§1) (pooled preparations from 20 donors; Kansas City, KS). […] Insect microsomes expressing only NADPH-P450 oxidoreductase and cytochrome b5 were also used as control. These enzymes were stored at −80°C until use.
# (§2) 5-FU formed from FT was subjected to extensive metabolism by dihydropyrimidine dehydrogenase (DPD) contaminating human hepatic preparations. Therefore, a potent DPD inhibitor, CDHP, was always added to avoid the unexpected loss of 5-FU (Ikeda et al. [2000]; Yamamiya et al. [2010]). Incubation mixture for hepatic microsomal metabolism contained FT, microsomes (1 mg protein/mL), 0.1 mmol/L CDHP, and an NADPH-generating system consisting of 1.3 mmol/L β-NADP^+, 3.3 mmol/L glucose-6-phosphate, 3.3 mmol/L magnesium chloride, and 0.4 units glucose-6-phosphate dehydrogenase in 100 mmol/L Tris (pH 7.4). Metabolic reaction by S9 and cytosol (each 2 mg protein/mL) was carried out in 100 mmol/L phosphate (pH 7.4) because TPase requires phosphate ions for catalyzing the reaction. In some cases, insect microsomes expressing recombinant CYP isoforms (20 pmol/mL) were added to the incubation mixtures in either 50, 100 mmol/L phosphate (pH 7.4) or 100 mmol/L Tris (pH 7.4), depending on supplier's recommendation. […] The reaction for the assay of FT metabolism was initiated by adding the substrate, following preincubation for 5 min at 37°C. […] The incubation times of microsomes, cytosol, and S9 were 15, 15, and 30 min, respectively. After centrifugation, the supernatant was collected and stored at −80°C until the determination of 5-FU. Because a small portion of FT is nonenzymatically converted to 5-FU, the content of 5-FU spontaneously formed was subtracted from total yield obtained after incubation to correct the activity. The spontaneous degradation of FT to 5-FU was evaluated using enzymes inactivated by heating them at 100°C for 5 min.
# (§3) Concentration of 5-FU was determined using a LC/MS/MS system. […] The mobile phase consisted of 10 mmol/L ammonium acetate/acetonitrile 10:90 (v/v). The MS/MS analysis was performed in negative ionization mode under multiple reaction monitoring (MRM) mode, using mass transitions, m/z 128.6/41.8 for 5-FU and m/z 130.6/42.8 for ^15N2-5-FU, an internal standard (IS). […] For quantification of 5-FU, the calibration curves were linear over the range 2–1000 ng/mL.
# (§4) In determining kinetic parameters, FT concentration ranged from 0.03 to 10 mmol/L. All reactions were performed in a linear range of 5-FU formation with respect to protein or CYP concentrations and incubation time. Eadie–Hofstee plot analysis was used to characterize enzyme kinetics in which kinetic parameters were estimated by fitting the data to the following equations (1) or (2): [drawing 1] (1) [drawing 2] (2) where V is 5-FU formation rate, S is FT concentration in the incubation mixture, Km1 and Km2 are affinity constants for high- and low-affinity components, respectively, and Vmax1 and Vmax2 are maximum velocities for high- and low-affinity components, respectively.
# (§5) The contribution of CYPn to the metabolism of R- and S-FT at their concentration of 30 μmol/L was subsequently calculated using equation (4). [drawing 4] (4) VCYPn = 5-FU formation rate in cDNA-expressed CYPn.
# [2] = molecular target: T2, CYP2E1 (Homo sapiens, UniProt P05181); test: 5-FU formation from FT enantiomers by cDNA-expressed CYP2E1 (kinetics, velocity, RAF contribution); type: in vitro ADME; conditions: for CYP contribution: CYP2E1, RAF method, 30 μmol/L; for CLint / Km / Vmax: cDNA-expressed CYP2E1
# T2 construct: purchased BD Gentest; host or cells: insect cells (baculovirus)
# T2 sequence (P05181 whole entry): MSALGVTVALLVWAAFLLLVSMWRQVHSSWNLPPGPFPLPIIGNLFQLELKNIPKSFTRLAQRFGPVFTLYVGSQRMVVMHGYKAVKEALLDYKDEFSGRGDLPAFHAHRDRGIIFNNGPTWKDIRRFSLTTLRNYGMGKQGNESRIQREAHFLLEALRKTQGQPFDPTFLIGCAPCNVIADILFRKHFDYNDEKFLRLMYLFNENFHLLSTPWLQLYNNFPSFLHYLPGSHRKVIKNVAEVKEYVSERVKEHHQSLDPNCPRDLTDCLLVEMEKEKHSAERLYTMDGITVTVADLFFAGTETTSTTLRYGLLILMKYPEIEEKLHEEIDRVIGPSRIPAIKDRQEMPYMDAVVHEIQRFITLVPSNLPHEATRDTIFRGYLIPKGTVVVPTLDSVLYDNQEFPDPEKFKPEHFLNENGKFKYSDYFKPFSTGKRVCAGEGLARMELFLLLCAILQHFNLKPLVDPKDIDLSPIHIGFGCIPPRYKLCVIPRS
# Protocol: as §1, §2, §3, §4, §5
# [3] = molecular target: T3, CYP1A2 (Homo sapiens, UniProt P05177); test: 5-FU formation from FT enantiomers by cDNA-expressed CYP1A2 (kinetics, velocity, RAF contribution); type: in vitro ADME; conditions: for CYP contribution: CYP1A2, RAF method, 30 μmol/L
# T3 construct: purchased BD Gentest; host or cells: insect cells (baculovirus)
# T3 sequence (P05177 2-516 limits assumed): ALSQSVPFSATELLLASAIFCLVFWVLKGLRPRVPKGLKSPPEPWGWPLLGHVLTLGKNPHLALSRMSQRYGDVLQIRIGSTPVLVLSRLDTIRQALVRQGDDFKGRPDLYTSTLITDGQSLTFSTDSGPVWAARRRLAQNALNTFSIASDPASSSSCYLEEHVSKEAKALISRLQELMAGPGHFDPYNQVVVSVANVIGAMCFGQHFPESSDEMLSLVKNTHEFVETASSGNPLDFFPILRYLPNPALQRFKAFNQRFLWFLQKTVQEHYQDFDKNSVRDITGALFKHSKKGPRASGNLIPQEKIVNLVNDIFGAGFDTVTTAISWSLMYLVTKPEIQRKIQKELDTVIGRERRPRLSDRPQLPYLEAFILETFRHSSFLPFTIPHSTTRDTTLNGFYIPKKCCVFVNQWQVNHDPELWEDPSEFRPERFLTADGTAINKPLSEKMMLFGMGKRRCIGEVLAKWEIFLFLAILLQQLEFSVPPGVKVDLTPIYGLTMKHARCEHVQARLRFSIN
# Protocol: as §1, §2, §3, §4, §5
# [4] = 5-FU formation from FT enantiomers in human hepatic microsomes (kinetic analysis, formation rate); type: in vitro ADME; conditions: for Km / Vmax: monophasic kinetics; for Km1 / Vmax1 / CLint1: high-affinity component; for CLint1: Vmax/Km; for Km2 / Vmax2: low-affinity component
# Protocol: as §1, §2, §3, §4
# [5] = parameters: method as in Damle et al. [2001]; conditions: ref Damle et al. [2001], cited from earlier work; for maximum concentration (Cmax) / Cmax: cancer patients after oral administration of UFT; for Cmax: read-out: maximum concentration (Cmax); for area under the plasma concentration–time curve / plasma elimination half-life: cancer patients orally given FT
# [6] = 5-FU formation from FT enantiomers in pooled human hepatic cytosol; type: in vitro ADME
# Protocol: as §1
# 5-FU formed from FT was subjected to extensive metabolism by dihydropyrimidine dehydrogenase (DPD) contaminating human hepatic preparations. Therefore, a potent DPD inhibitor, CDHP, was always added to avoid the unexpected loss of 5-FU (Ikeda et al. [2000]; Yamamiya et al. [2010]). Incubation mixture for hepatic microsomal metabolism contained FT, microsomes (1 mg protein/mL), 0.1 mmol/L CDHP, and an NADPH-generating system consisting of 1.3 mmol/L β-NADP^+, 3.3 mmol/L glucose-6-phosphate, 3.3 mmol/L magnesium chloride, and 0.4 units glucose-6-phosphate dehydrogenase in 100 mmol/L Tris (pH 7.4). Metabolic reaction by S9 and cytosol (each 2 mg protein/mL) was carried out in 100 mmol/L phosphate (pH 7.4) because TPase requires phosphate ions for catalyzing the reaction. […] The spontaneous degradation of FT to 5-FU was evaluated using enzymes inactivated by heating them at 100°C for 5 min.
# Concentration of 5-FU was determined using a LC/MS/MS system. […] For quantification of 5-FU, the calibration curves were linear over the range 2–1000 ng/mL. […]
# [7] = Mean ± SD of five human livers, total (for R-FT sum of high- and low-affinity components)
# [8] = microsomes HG32, total (for R-FT sum of high- and low-affinity components)
# [9] = microsomes HH31, total (for R-FT sum of high- and low-affinity components)
# [10] = microsomes HH74, total (for R-FT sum of high- and low-affinity components)
# [11] = microsomes HH94, total (for R-FT sum of high- and low-affinity components)
# [12] = human hepatic microsomes, higher
compound,measurement,setting,value
O=c1[nH]c(=O)n([C@@H]2CCCO2)cc1F [S-FT],CYP contribution,[1],3.9%
same,CLint,[1]; cDNA-expressed CYP2C19,0.90 nL min^−1 pmol^−1 CYP
same,Km,[1]; cDNA-expressed CYP2C19,6200 ± 300 µM
same,Vmax,[1]; cDNA-expressed CYP2C19,5.5 ± 0.2 pmol min^−1 pmol^−1 CYP
same,CYP contribution,[2],7.0%
same,CLint,[2],1.3 nL min^−1 pmol^−1 CYP
same,Km,[2],3700 ± 200 µM
same,Vmax,[2],4.7 ± 0.2 pmol min^−1 pmol^−1 CYP
same,CYP contribution,[3],4.4%
same,Km,[3]; cDNA-expressed CYP1A2,> 10000 µM
same,Km,[4]; Mean ± SD of five human livers,1600 ± 600 µM
same,Vmax,[4]; Mean ± SD of five human livers,1021 ± 692 pmol/min/mg
same,CLint,[4]; [7],0.73 ± 0.53 µL/min/mg
same,Km,[4]; microsomes HG32,1400 µM
same,Vmax,[4]; microsomes HG32,468 pmol/min/mg
same,CLint,[4]; [8],0.34 µL/min/mg
same,Km,[4]; microsomes HH31,1400 µM
same,Vmax,[4]; microsomes HH31,2205 pmol/min/mg
same,CLint,[4]; [9],1.6 µL/min/mg
same,Km,[4]; microsomes HH74,2600 µM
same,Vmax,[4]; microsomes HH74,583 pmol/min/mg
same,CLint,[4]; [10],0.23 µL/min/mg
same,Km,[4]; microsomes HH81,1100 µM
same,Vmax,[4]; microsomes HH81,915 pmol/min/mg
same,CLint,"[4]; microsomes HH81, total",0.81 µL/min/mg
same,Km,[4]; microsomes HH94,1300 µM
same,Vmax,[4]; microsomes HH94,936 pmol/min/mg
same,CLint,[4]; [11],0.71 µL/min/mg
same,maximum concentration (Cmax),[5],3788 ng/mL
same,Cmax,[5],18.9 µM
same,area under the plasma concentration–time curve,[5],"49,300 ng h/mL"
same,plasma elimination half-life,[5],10.3 h
O=c1[nH]c(=O)n([C@H]2CCCO2)cc1F [R-FT],CYP contribution,[1],0.59%
same,Km,[1]; cDNA-expressed CYP2C19,> 10000 µM
same,CYP contribution,[2],4.3%
same,CLint,[2],2.3 nL min^−1 pmol^−1 CYP
same,Km,[2],3600 ± 300 µM
same,Vmax,[2],8.4 ± 0.6 pmol min^−1 pmol^−1 CYP
same,CYP contribution,[3],7.5%
same,CLint,[3]; cDNA-expressed CYP1A2,4.9 nL min^−1 pmol^−1 CYP
same,Km,[3]; cDNA-expressed CYP1A2,1100 ± 100 µM
same,Vmax,[3]; cDNA-expressed CYP1A2,5.6 ± 0.3 pmol min^−1 pmol^−1 CYP
same,Km1,[4]; Mean ± SD of five human livers,0.12 mmol/L and 0.12 ± 0.03 mmol/L
same,Vmax1,[4]; Mean ± SD of five human livers,838 ± 669 pmol/min/mg
same,CLint1,[4]; Mean ± SD of five human livers,6.2 ± 4.4 µL/min/mg
same,CLint,[4]; [7],6.4 ± 4.4 µL/min/mg
same,Km2,[4]; Mean ± SD of human livers,2.7 mmol/L and 2.7 ± 0.3 mmol/L
same,Vmax2,[4]; Mean ± SD of human livers,613 ± 236 pmol/min/mg
same,CLint (Vmax/Km) of high-affinity component compared with the low-affinity one,[4]; [12],approximately 27 fold
same,CLint value of R-FT relative to that of S-FT,[4]; [12],8.8 fold
same,Km1,[4]; microsomes HG32,0.11 mmol/L
same,Vmax1,[4]; microsomes HG32,355 pmol/min/mg
same,CLint1,[4]; microsomes HG32,3.2 µL/min/mg
same,Km2,[4]; microsomes HG32,3.0 mmol/L
same,Vmax2,[4]; microsomes HG32,302 pmol/min/mg
same,CLint,[4]; [8],3.3 µL/min/mg
same,Km1,[4]; microsomes HH31,0.14 mmol/L
same,Vmax1,[4]; microsomes HH31,1816 pmol/min/mg
same,CLint1,[4]; microsomes HH31,13 µL/min/mg
same,Km2,[4]; microsomes HH31,2.9 mmol/L
same,Vmax2,[4]; microsomes HH31,859 pmol/min/mg
same,CLint,[4]; [9],13 µL/min/mg
same,Km1,[4]; microsomes HH74,0.093 mmol/L
same,Vmax1,[4]; microsomes HH74,146 pmol/min/mg
same,CLint1,[4]; microsomes HH74,1.6 µL/min/mg
same,Km2,[4]; microsomes HH74,2.7 mmol/L
same,Vmax2,[4]; microsomes HH74,709 pmol/min/mg
same,CLint,[4]; [10],1.8 µL/min/mg
same,Km1,[4]; microsomes HH81,0.16 mmol/L
same,Vmax1,[4]; microsomes HH81,1162 pmol/min/mg
same,CLint1,[4]; microsomes HH81,7.1 µL/min/mg
same,CLint,"[4]; microsomes HH81, total",7.1 µL/min/mg
same,Km1,[4]; microsomes HH94,0.12 mmol/L
same,Vmax1,[4]; microsomes HH94,712 pmol/min/mg
same,CLint1,[4]; microsomes HH94,6.1 µL/min/mg
same,Km2,[4]; microsomes HH94,2.3 mmol/L
same,Vmax2,[4]; microsomes HH94,583 pmol/min/mg
same,CLint,[4]; [11],6.4 µL/min/mg
same,contribution of the high-affinity component to the conversion to 5-FU,[4]; substrate concentration well below the Km value,over 90%
same,maximum concentration (Cmax),[5],2957 ng/mL
same,Cmax,[5],14.8 µM
same,area under the plasma concentration–time curve,[5],"10,800 ng h/mL"
same,plasma elimination half-life,[5],2.4 h
same,Vmax,[6],761 pmol/min/mg
same,Km,[6]; read-out: apparent Km,26000 µM
